How the values were obtained:
Assay type in all cases: in vivo
[1] = tested on: Echinochloa oryzacola Vasing.; assay: Test Example 2: herbicidal activity, application during weed generation in submerged conditions; conditions: Eighteenth Table; application herbicide amount 320 g/ha
In short: (§1)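 Scored three weeks post-application on a 0–5 scale (5: ≥90% herbicidal ratio, almost withered; 0: ≤5%). Plants raised from mixed-sown seed in submerged alluvial soil (4 cm water), 25–30 °C greenhouse; water-diluted emulsion applied onto water surface at one- to two-leaf stage, dose in g/ha.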

Monochoria vaginalis = assay: as above; conditions: Eighteenth Table; application herbicide amount 320 g/ha
In short: as §1

Scirpus juncoides = assay: as above; conditions: Eighteenth Table; application herbicide amount 320 g/ha
In short: as §1

[2] = tested on: transplanted Oryza sativa; assay: Test Example 1: effect on crop, application before weed generation in submerged conditions; conditions: Seventeenth Table; for a: transplanted Oryza sativa (effect on crop grade): Application herbicide amount 320 g/ha; for a (transplanted Oryza sativa) effect on crop grade: application herbicide amount 320 g/ha
In short: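 Pre-emergence water-surface application under 4 cm flooding, same day as sowing, with rice transplanted at 2.5 leaf stage. Dose given as g/ha. Plants grown at 25° C. to 30° C. and rated three weeks later on a 0 (≤5%) to 5 (≥90%) herbicidal-ratio scale.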

Row | Compound | A (Echinochloa oryzicola Vasing.) herbicidal ratio grade [1] | C (Monochoria vaginalis) herbicidal ratio grade (Monochoria vaginalis) | B (Scirpus juncoides) herbicidal ratio grade (Scirpus juncoides) | a: transplanted Oryza sativa (effect on crop grade) [2] | a (transplanted Oryza sativa) effect on crop grade [2]
1 | Cn1nnnc1NC(=O)c1ccc(C(F)(F)F)n2c(SCC(F)(F)F)nnc12 [2-087] | 4 (Herbicidal ratio of 70% or more and less than 90%) | 3 (Herbicidal ratio of 40% or more and less than 70%) | 4 (Herbicidal ratio of 70% or more and less than 90%) | 3 (Herbicidal ratio of 40% or more and less than 70%) | 
2 | CCN(CC)c1nnc2c(C(=O)Nc3nnnn3C)ccc(C(F)(F)F)n12 [2-089] | 4 (Herbicidal ratio of 70% or more and less than 90%) | 5 (Herbicidal ratio of 90% or more (almost completely withered)) | 4 (Herbicidal ratio of 70% or more and less than 90%) | 4 (Herbicidal ratio of 70% or more and less than 90%) | 
3 | CCCn1nnnc1NC(=O)c1ccc(C(F)(F)F)n2c(C(C)C)nnc12 [2-090] | 5 (Herbicidal ratio of 90% or more (almost completely withered)) | 4 (Herbicidal ratio of 70% or more and less than 90%) | 5 (Herbicidal ratio of 90% or more (almost completely withered)) | 4 (Herbicidal ratio of 70% or more and less than 90%) | 
4 | C=CCn1nnnc1NC(=O)c1ccc(C(F)(F)F)n2c(C(C)C)nnc12 [2-091] | 4 (Herbicidal ratio of 70% or more and less than 90%) | 4 (Herbicidal ratio of 70% or more and less than 90%) | 5 (Herbicidal ratio of 90% or more (almost completely withered)) | 0 (Herbicidal ratio of 5% or less (almost no effect)) | 
5 | CC(C)c1nnc2c(C(=O)Nc3nnnn3Cc3ccc(Cl)cc3)ccc(C(F)(F)F)n12 [2-093] | 2 (Herbicidal ratio of 20% or more and less than 40%) | 3 (Herbicidal ratio of 40% or more and less than 70%) | 4 (Herbicidal ratio of 70% or more and less than 90%) | 2 (Herbicidal ratio of 20% or more and less than 40%) | 
6 | C#CCN(C)c1nnc2c(C(=O)Nc3nnnn3C)ccc(C(F)(F)F)n12 [2-094] | 5 (Herbicidal ratio of 90% or more (almost completely withered)) | 4 (Herbicidal ratio of 70% or more and less than 90%) | 5 (Herbicidal ratio of 90% or more (almost completely withered)) | 4 (Herbicidal ratio of 70% or more and less than 90%) | 
7 | CN(CCC#N)c1nnc2c(C(=O)Nc3nnnn3C)ccc(C(F)(F)F)n12 [2-095] | 4 (Herbicidal ratio of 70% or more and less than 90%) | 5 (Herbicidal ratio of 90% or more (almost completely withered)) | 5 (Herbicidal ratio of 90% or more (almost completely withered)) | 5 (Herbicidal ratio of 90% or more (almost completely withered)) | 
8 | COc1ccc(N(C)c2nnc3c(C(=O)Nc4nnnn4C)ccc(C(F)(F)F)n23)cc1 [2-099] | 5 (Herbicidal ratio of 90% or more (almost completely withered)) | 4 (Herbicidal ratio of 70% or more and less than 90%) | 5 (Herbicidal ratio of 90% or more (almost completely withered)) |  | 4 (Herbicidal ratio of 70% or more and less than 90%)
9 | C=CCN(C)c1nnc2c(C(=O)Nc3nnnn3C)ccc(C(F)(F)F)n12 [2-100] | 4 (Herbicidal ratio of 70% or more and less than 90%) | 4 (Herbicidal ratio of 70% or more and less than 90%) | 3 (Herbicidal ratio of 40% or more and less than 70%) |  | 3 (Herbicidal ratio of 40% or more and less than 70%)
10 | COCCSc1nnc2c(C(=O)Nc3nnnn3C)ccc(C(F)(F)F)n12 [2-101] | 4 (Herbicidal ratio of 70% or more and less than 90%) | 5 (Herbicidal ratio of 90% or more (almost completely withered)) | 4 (Herbicidal ratio of 70% or more and less than 90%) |  | 3 (Herbicidal ratio of 40% or more and less than 70%)
11 | C=CCSc1nnc2c(C(=O)Nc3nnnn3C)ccc(C(F)(F)F)n12 [2-102] | 4 (Herbicidal ratio of 70% or more and less than 90%) | 4 (Herbicidal ratio of 70% or more and less than 90%) | 4 (Herbicidal ratio of 70% or more and less than 90%) |  | 1 (Herbicidal ratio of 5% or more and less than 20%)
12 | C#CCSc1nnc2c(C(=O)Nc3nnnn3C)ccc(C(F)(F)F)n12 [2-103] | 4 (Herbicidal ratio of 70% or more and less than 90%) | 4 (Herbicidal ratio of 70% or more and less than 90%) | 3 (Herbicidal ratio of 40% or more and less than 70%) |  | 3 (Herbicidal ratio of 40% or more and less than 70%)
13 | CC#Cc1nnc2c(C(=O)Nc3nnnn3C)ccc(C(F)(F)F)n12 [2-106] | 1 (Herbicidal ratio of 5% or more and less than 20%) | 3 (Herbicidal ratio of 40% or more and less than 70%) | 2 (Herbicidal ratio of 20% or more and less than 40%) |  | 2 (Herbicidal ratio of 20% or more and less than 40%)
14 | CC(=O)OCc1nnc2c(C(=O)Nc3nnnn3C)ccc(C(F)(F)F)n12 [2-107] | 2 (Herbicidal ratio of 20% or more and less than 40%) | 2 (Herbicidal ratio of 20% or more and less than 40%) | 1 (Herbicidal ratio of 5% or more and less than 20%) |  | 1 (Herbicidal ratio of 5% or more and less than 20%)
15 | Cn1nnnc1NC(=O)c1ccc(C(F)(F)F)n2c(C3(C)CC3(Cl)Cl)nnc12 (stereo not shown) [2-110] | 5 (Herbicidal ratio of 90% or more (almost completely withered)) | 4 (Herbicidal ratio of 70% or more and less than 90%) | 5 (Herbicidal ratio of 90% or more (almost completely withered)) |  | 4 (Herbicidal ratio of 70% or more and less than 90%)
16 | Cn1nnnc1NC(=O)c1ccc(C(F)(F)F)n2c(=O)n(C)nc12 [6-002] | 3 (Herbicidal ratio of 40% or more and less than 70%) | 3 (Herbicidal ratio of 40% or more and less than 70%) | 2 (Herbicidal ratio of 20% or more and less than 40%) |  | 0 (Herbicidal ratio of 5% or less (almost no effect))

— patent publication US9708314B2, “Heterocyclic amide compound” (NISSAN CHEMICAL INDUSTRIES, LTD., priority 2013, dated 2017)
